Results from patent US8440674B2, “Substituted pyrimidine compounds as RAF inhibitors and methods of use” (Amgen Inc., priority 2005, dated 2013).
Read-outs that look alike come from different tables or passages of the source.

Experiments:
[1] = system: A375 cells, a human melanoma cell line having the V600E mutant Braf; test: B-Raf cell-based assay (ratio of phospho-ERK1/2 to total ERK1/2); settings: A-375, 1 h, P-ERK/total ERK, 60 minute incubation, read-out: IC50 for the inhibition of B-raf as measured by the cell-based assay
Experimental: A cell-based assay was optimized to assay the ability of compounds to inhibit Braf activity in a whole cell context. […] The cell-based assay quantifies the ratio of phospho-ERK1/2 to total ERK1/2 and can thereby assay the cellular inhibition of Braf kinase activity.
A375 cells are plated into 96 well plates and grown to confluence. The cells are then changed into starve media (DMEM/0.1% BSA) for 60 minutes. Compounds in DMSO dose curves are then diluted in starve media and added to cells. […] After a 60 minute incubation the cells are fixed for 20 minutes at room temperature in 4% formaldehyde with 0.1%Triton X-100, protease and phosphatase inhibitors in PBS. The cells are washed four times in PBS then blocked for 60 minutes using a one to one mix of Odyssey blocking buffer (Li-Cor Biosciences, Inc) and PBS. Primary antibodies (rabbit anti-phospho p42/p44 MAPK (P-ERK1/2) from Cell Signaling Technology and mouse anti-ERK2 from Santa Cruz Biotechnology) are diluted in blocking buffer, added to the cells and incubated overnight at 4° C. The cells are then washed four times in PBS/0.1% Tween-20. Secondary antibodies (anti-mouse IRDye 800CW from Rockland, Inc and anti-rabbit AlexaFlour680 from Molecular Probes) are diluted in blocking buffer/0.5% Tween and incubated on cells for 60 minutes. After 4 washes in PBS/0.1% Tween-20 the microplate is scanned on an Odyssey Infrared Imager (Li-Cor Bioscience) which can read the signal given by the two secondary antibodies on their respective channels. The ratio of P-ERK/total ERK is determined and IC50s generated using Excel-XLfit software.

recombinant HuBraf V600E = recombinant HuBraf V600E (Homo sapiens, UniProt P15056, V600E); test: B-raf Homogenous Time Resolved Fluorescent (HTRF) kinase assay; format: biochemical; settings: substrate MEK1, 10 uM ATP; threshold lists; read-out: IC50 for the inhibition of B-raf as measured by the HTRF assay
Experimental: A Homogeneous Time Resolved Fluorescence (HTRF) kinase assay was established to assay the ability of compounds to inhibit human mutant Braf kinase activity on the substrate MEK1. […] The final concentration of the kinase reaction buffer is 50 mM Tris-HCL pH 7.5, 10 mM MgCl2, 0.5% glucose, 0.5 mM DTT, 0.01% BSA.
The detection reaction proceeds for one hour and is read on a RubyStar (BMG Labtech) counter. IC50s for the test compounds are generated using Excel-XLfit software.

Sequence of recombinant HuBraf V600E (P15056 whole entry V600E): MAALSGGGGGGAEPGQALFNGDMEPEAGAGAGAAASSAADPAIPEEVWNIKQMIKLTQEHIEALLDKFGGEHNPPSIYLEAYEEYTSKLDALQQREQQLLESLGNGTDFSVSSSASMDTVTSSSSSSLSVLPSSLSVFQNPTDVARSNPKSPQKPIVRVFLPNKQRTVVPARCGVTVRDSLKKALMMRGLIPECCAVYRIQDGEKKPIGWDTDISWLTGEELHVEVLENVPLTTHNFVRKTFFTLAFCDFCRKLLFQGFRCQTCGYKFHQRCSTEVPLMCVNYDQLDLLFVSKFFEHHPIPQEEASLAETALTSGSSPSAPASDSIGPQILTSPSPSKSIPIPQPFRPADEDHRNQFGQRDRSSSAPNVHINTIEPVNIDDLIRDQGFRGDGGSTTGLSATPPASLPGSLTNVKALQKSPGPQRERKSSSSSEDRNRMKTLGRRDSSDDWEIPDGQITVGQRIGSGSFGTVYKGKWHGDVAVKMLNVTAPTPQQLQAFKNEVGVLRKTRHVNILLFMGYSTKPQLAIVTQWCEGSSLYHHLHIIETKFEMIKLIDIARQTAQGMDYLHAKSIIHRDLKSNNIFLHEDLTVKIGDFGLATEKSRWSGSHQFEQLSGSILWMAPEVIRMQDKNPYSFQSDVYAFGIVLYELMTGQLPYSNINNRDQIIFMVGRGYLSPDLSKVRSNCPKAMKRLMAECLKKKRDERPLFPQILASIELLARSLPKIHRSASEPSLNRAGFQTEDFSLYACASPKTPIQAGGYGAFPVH

| IC50 ([1]; threshold list) | IC50 (recombinant HuBraf V600E) | IC50 ([1]; threshold lists) | SMILES |
| --- | --- | --- | --- |
| ≤ 500 nM | ≤ 250 nM | – | CNc1ncc2cc(-c3c(C)ccc4c(Nc5cccc(C(F)(F)F)c5)ncnc34)ccc2n1 [Example 51, N^2,7′-dimethyl-N^4′-(3-(trifluoromethyl)phenyl)-6,8′-biquinazoline-2,4′-diamine] |
| ≤ 500 nM | ≤ 250 nM | – | CNc1ncc2cc(-c3c(C)ccc4c(Nc5ccc(OC)c(C(F)(F)F)c5)ncnc34)ccc2n1 [Example 52, N^2,7′-dimethyl-N^4′-(4-(methyloxy)-3-(trifluoromethyl)phenyl)-6,8′-biquinazoline-2,4′-diamine] |
| ≤ 500 nM | ≤ 250 nM | – | CNc1ncc2cc(-c3c(C)ccc4c(Nc5ccc(Cl)c(C(F)(F)F)c5)ncnc34)ccc2n1 [Example 55, N^4′-(4-chloro-3-(trifluoromethyl)phenyl)-N^2,7′-dimethyl-6,8′-biquinazoline-2,4′-diamine] |
| ≤ 500 nM | ≤ 250 nM | – | CNc1ncc2cc(-c3c(C)ccc4c(Nc5cccc(C(F)(F)F)c5)nn(C)c34)ccc2n1 [Example 63, 6-(1,6-dimethyl-3-((3-(trifluoromethyl)phenyl)amino)-1H-indazol-7-yl)-N-methyl-2-quinazolinamine] |
| ≤ 500 nM | ≤ 250 nM | – | CNc1ncc2cc(-c3c(C)ccc4c(Nc5ccc(OC)c(C(F)(F)F)c5)nn(C)c34)ccc2n1 [Example 64, 6-(1,6-dimethyl-3-((4-(methyloxy)-3-(trifluoromethyl)phenyl)amino)-1H-indazol-7-yl)-N-methyl-2-quinazolinamine] |
| ≤ 500 nM | ≤ 250 nM | – | CNc1ncc2cc(-c3c(C)ccc4c(Nc5cccc(OC(F)(F)F)c5)nn(C)c34)ccc2n1 [Example 65, 6-(1,6-dimethyl-3-((3-((trifluoromethyl)oxy)phenyl)amino)-1H-indazol-7-yl)-N-methyl-2-quinazolinamine] |
| ≤ 500 nM | ≤ 250 nM | ≤ 1000 nM | CNc1ncc2cc(-c3c(C)ccc4c(Nc5ccc(C)c(F)c5)nn(C)c34)ccc2n1 [Example 198] |
| ≤ 500 nM | ≤ 250 nM | ≤ 1000 nM | CNc1ncc2cc(-c3c(C)ccc4c(Nc5ccc(-n6ccnc6)cc5)nn(C)c34)ccc2n1 [Example 204] |

The remaining lines, values behind:

| SMILES | IC50 ([1]; threshold list) | IC50 (recombinant HuBraf V600E) | IC50 ([1]; threshold lists) |
| --- | --- | --- | --- |
| CNc1ncc2cc(-c3c(C)ccc4c(Nc5cccc(OC(F)(F)F)c5)ncnc34)ccc2n1 [Example 50, N^2,7′-dimethyl-N^4′-(3-((trifluoromethyl)oxy)phenyl)-6,8′-biquinazoline-2,4′-diamine] | ≤ 500 nM | ≤ 250 nM | – |
| CNc1ncc2cc(-c3c(C)ccc4c(Nc5cc(C(C)(C)C)nn5C)ncnc34)ccc2n1 [Example 53, N^4′-(3-(1,1-dimethylethyl)-1-methyl-1H-pyrazol-5-yl)-N^2,7′-dimethyl-6,8′-biquinazoline-2,4′-diamine] | ≤ 500 nM | ≤ 250 nM | – |
| CNc1ncc2cc(-c3c(C)ccc4c(Nc5ccc6c(c5)N(C(C)=O)CC6(C)C)ncnc34)ccc2n1 [Example 54, N^4′-(1-acetyl-3,3-dimethyl-2,3-dihydro-1H-indol-6-yl)-N^2,7′-dimethyl-6,8′-biquinazoline-2,4′-diamine] | ≤ 500 nM | ≤ 250 nM | – |
| CNc1ncc2cc(-c3c(C)ccc4c(Nc5cncc(C(F)(F)F)c5)ncnc34)ccc2n1 [Example 56, N^2,7′-dimethyl-N^4′-(5-(trifluoromethyl)-3-pyridinyl)-6,8′-biquinazoline-2,4′-diamine] | ≤ 500 nM | ≤ 250 nM | – |
| CNc1ncc2cc(-c3c(C)ccc4c(NC5CCC(C(C)(C)C)CC5)ncnc34)ccc2n1 (stereo not drawn) [Example 57, N^4′-(4-(1,1-dimethylethyl)cyclohexyl)-N^2,7′-dimethyl-6,8′-biquinazoline-2,4′-diamine] | ≤ 500 nM | ≤ 250 nM | ≤ 1000 nM |
| CNc1ncc2cc(-c3c(C)ccc4c(Nc5ccc6sc(C)nc6c5)ncnc34)ccc2n1 [Example 58, N^2,7′-dimethyl-N^4′-(2-methyl-1,3-benzothiazol-5-yl)-6,8′-biquinazoline-2,4′-diamine] | ≤ 500 nM | ≤ 250 nM | ≤ 1000 nM |
| CNc1cc(-c2cccnc2Nc2c(C)ccc3c(Nc4cccc(OC(F)(F)F)c4)nccc23)ncn1 [Example 68, 6-methyl-N^5-(3-(6-(methylamino)-4-pyrimidinyl)-2-pyridinyl)-N^1-(3-((trifluoromethyl)oxy)phenyl)-1,5-isoquinolinediamine] | ≤ 500 nM | ≤ 250 nM | – |
| CNc1cc(-c2cccnc2Nc2c(C)ccc3c(Nc4ccc(OC)c(C(F)(F)F)c4)nccc23)ncn1 [Example 70, N^1-(4-methoxy-3-(trifluoromethyl)phenyl)-6-methyl-N^5-(3-(6-(methylamino)pyrimidin-4-yl)pyridin-2-yl)isoquinoline-1,5-diamine] | ≤ 500 nM | ≤ 500 nM | – |
| CNc1cc(-c2cccnc2Nc2c(C)ccc3c(Nc4ccc5c(c4)NCCC5(C)C)nccc23)ncn1 [Example 72, N^1-(4,4-dimethyl-1,2,3,4-tetrahydro-7-quinolinyl)-6-methyl-N^5-(3-(6-(methylamino)-4-pyrimidinyl)-2-pyridinyl)-1,5-isoquinolinediamine] | ≤ 500 nM | ≤ 1000 nM | – |
| CNc1ncc2cc(-c3c(C)ccc4c(Nc5cccc(OC(C)C)c5)n[nH]c34)ccc2n1 [Example 78, N-methyl-6-(6-methyl-3-((3-((1-methylethyl)oxy)phenyl)amino)-1H-indazol-7-yl)-2-quinazolinamine] | ≤ 500 nM | ≤ 250 nM | – |
| CNc1ncc2cc(-c3c(C)ccc4c(Nc5ccc6c(c5)NCC6(C)C)nccc34)ccc2n1 [Example 79, 6-(1-((3,3-dimethyl-2,3-dihydro-1H-indol-6-yl)amino)-6-methyl-5-isoquinolinyl)-N-methyl-2-quinazolinamine] | ≤ 500 nM | ≤ 250 nM | – |
| Cc1ccc2c(Nc3ccc4c(c3)NCC4(C)C)nccc2c1Nc1ncccc1-c1ccncn1 [Example 80, N^1-(3,3-dimethyl-2,3-dihydro-1H-indol-6-yl)-6-methyl-N^5-(3-(4-pyrimidinyl)-2-pyridinyl)-1,5-isoquinolinediamine] | ≤ 500 nM | ≤ 250 nM | – |
| CNc1ncc2cc(-c3c(C)ccc4c(Nc5ccc6c(c5)NCC6(C)C)ncnc34)ccc2n1 [Example 81, N^4′-(3,3-dimethyl-2,3-dihydro-1H-indol-6-yl)-N^2,7′-dimethyl-6,8′-biquinazoline-2,4′-diamine] | ≤ 500 nM | ≤ 250 nM | – |
| CNc1cc(-c2cccnc2Nc2c(C)ccc3c(Nc4cccc(C(F)(F)F)c4)ncnc23)ncn1 [Example 337, 7-methyl-N8-(3-(6-(methylamino)pyrimidin-4-yl)pyridin-2-yl)-N4-(3-(trifluoromethyl)phenyl)quinazoline-4,8-diamine] | – | ≤ 250 nM | ≤ 5000 nM |
| CNc1cc(-c2cccnc2Nc2c(C)ccc3c(Nc4cccc(OC(F)(F)F)c4)ncnc23)ncn1 [Example 343] | ≤ 500 nM | ≤ 250 nM | – |
| Cc1ccc(C(F)(F)F)cc1Nc1nccc2c(Nc3ncccc3-c3ncnc4[nH]ccc34)c(C)ccc12 [Example 346] | – | ≤ 500 nM | ≤ 5000 nM |
| CNc1cc(-c2cccnc2Nc2c(C)ccc3c(Nc4ccc(Cl)c(C)c4)nccc23)ncn1 [Example 352] | – | ≤ 250 nM | ≤ 5000 nM |
